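A five-concentration, 48-hour dose response in 96-well plates underlies each endpoint, interpolated linearly between surrounding concentrations. TGI: concentration producing complete growth inhibition.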
What was measured:
Assay in all cases: DTP human tumour cell line panel, 48 h
BT-549 breast = system: BT-549 breast
COLO 205 colon = system: COLO 205 colon
EKVX NSCLC = system: EKVX NSCLC
HCT-116 colon = system: HCT-116 colon
HCT-15 colon = system: HCT-15 colon
HOP-92 NSCLC = system: HOP-92 NSCLC
LOX IMVI melanoma = system: LOX IMVI melanoma
M14 melanoma = system: M14 melanoma
MDA-MB-231 breast = system: MDA-MB-231 breast
MDA-MB-435 = system: MDA-MB-435
NCI-H522 lung = system: NCI-H522 lung
OVCAR-3 ovarian = system: OVCAR-3 ovarian
SN12C renal = system: SN12C renal
TK-10 renal = system: TK-10 renal
UACC-257 melanoma = system: UACC-257 melanoma
UACC-62 melanoma = system: UACC-62 melanoma
MCF7 breast = system: MCF7 breast
MDA-N = system: MDA-N
RPMI-8226 leukemia = system: RPMI-8226 leukemia
SNB-75 CNS = system: SNB-75 CNS

Row | Compound | TGI (BT-549 breast) [µM] | TGI (COLO 205 colon) [µM] | TGI (EKVX NSCLC) [µM] | TGI (HCT-116 colon) [µM] | TGI (HCT-15 colon) [µM] | TGI (HOP-92 NSCLC) [µM] | TGI (LOX IMVI melanoma) [µM] | TGI (M14 melanoma) [µM] | TGI (MDA-MB-231 breast) [µM] | TGI (MDA-MB-435) [µM] | TGI (NCI-H522 lung) [µM] | TGI (OVCAR-3 ovarian) [µM] | TGI (SN12C renal) [µM] | TGI (TK-10 renal) [µM] | TGI (UACC-257 melanoma) [µM] | TGI (UACC-62 melanoma) [µM] | TGI (MCF7 breast) [µM] | TGI (MDA-N) [µM] | TGI (RPMI-8226 leukemia) [µM] | TGI (SNB-75 CNS) [µM]
1 | Cc1ccc(-n2cnc3c(N/N=C4\SCC(=O)N4c4ccccc4)ncnc32)cc1 | 14.1 | 17.1 | 29 | 13 | 11.5 | 11.3 | 10.3 | 13.4 | 10.5 | 13.3 | 7.28 | 11.5 | 11.7 | 14.3 | 18.3 | 17.2 |  |  |  | 
2 | CC(C)(C)OC(=O)CN1CCNCCN(CC(=O)OC(C)(C)C)CC1 | > 100 | > 100 | > 100 | > 100 | > 100 | > 100 | > 100 | > 100 | > 100 |  | > 100 | > 100 | > 100 | > 100 | > 100 | > 100 | > 100 | > 100 | > 100 | 68.7
3 | COc1cc2c(c(OC)c1OC)C(=O)[C@H]1OC(=O)N[C@@H]21 |  | > 100 |  | > 100 | > 100 | > 100 | > 100 | > 100 | > 100 | > 100 |  | > 100 | > 100 | > 100 | > 100 | > 100 | > 100 |  | > 100 | > 100
4 | O=C1CCc2cc3c(cc21)CC1(Cc2ccccc2C1)C3 |  | 17.2 | > 100 | > 46.3 | > 100 | 35.6 | > 100 | > 100 | > 100 | 5.92 | > 79.9 | > 80.8 | > 100 | > 100 | 65.2 | > 88.3 | > 100 | 4.76 | 25.8 | > 60.8
5 | O=C1C(=O)N(C2CCCCC2)C(=S)N1C1CCCCC1 |  | > 100 | > 100 | > 100 | > 100 | > 100 | > 100 |  | > 100 | > 100 | > 100 |  | > 100 | > 100 | > 100 | > 100 |  | > 100 | > 100 | > 100
6 | C=C(Br)CN(CC(=C)Br)C(C)=O |  | > 100 | > 100 | > 100 | > 100 |  | > 100 | > 100 | > 100 | > 100 | > 100 | > 100 | > 100 | > 100 | > 100 | > 100 | > 100 | > 100 | > 100 | > 100
7 | O=[N+]([O-])/C(C(Cl)=C(Cl)Cl)=C1/OCCS1 |  | 36.8 | > 100 | 35.2 | 61 |  | 41.8 | > 100 | 40.2 | 47.3 | 79.7 | 36.8 | 43.8 | 66.4 | 67.3 | 61.9 | > 100 | > 100 | 66.2 | 50.6
8 | CCCCCCCCCCCC1N=C(N)NC(CCCO)=C1C(=O)OC (configuration not stated) | 23.1 |  | 40.6 | 3.01 | 29.7 | 10.7 |  |  | 6.6 |  | 3.72 | 9.08 | > 100 | 12.5 | 11.7 | 21.5 |  | > 100 | 4.78 | 7.44
9 | Cc1ccc(NC(=O)CC(=O)n2nc(C)c(N=Nc3ccc(S(=O)(=O)CCOS(=O)(=O)O)cc3)c2C)cc1 |  | > 100 | > 100 | > 100 |  |  | > 100 | > 100 | > 100 | > 100 | > 100 | > 100 |  | > 100 | > 100 | > 100 | > 100 | > 100 | > 100 | > 100
10 | C=CC12CN(C)C3C4COC(CC41)C1(C(=O)Nc4ccccc41)C32 (configuration not stated) |  | > 200 | > 200 | > 200 | > 200 | > 200 | > 200 |  |  |  | > 200 | > 200 | > 200 |  | > 200 | > 200 | > 200 |  | > 200 | > 200
11 | O=C1CCC[C@H]2O[C@@H](COCc3ccccc3)C[C@@H]12 |  | > 100 |  | > 100 | > 100 | > 100 |  | > 100 | > 100 | > 100 |  | > 100 | > 100 | > 100 | > 100 | > 100 | > 100 | > 100 | > 100 | > 100
12 | CC(=O)O[C@]12CCC[C@H]1C1(O)C(O)CCC[C@H]12 (some centres not stated) |  | > 100 | > 100 | > 100 | > 100 |  | > 100 | > 100 |  |  | > 100 |  | > 100 | > 100 | > 100 | > 100 |  |  | > 100 | > 100
13 | CC(Oc1ccc(OCC2CCCCC2)cc1)C(=O)N(CCO)CCO (configuration not stated) |  |  |  | > 100 | > 100 |  | > 100 | > 100 |  |  | > 100 | > 100 | > 100 | > 100 | > 100 | > 100 |  |  |  | > 100
14 | O=C1C=CC(=O)c2c(O)c(N[C@@H](Cc3ccccc3)C(=O)OCc3ccccc3)c(Cl)c(O)c21 | > 10 | 6.71 | > 10 | 4.42 | > 10 | > 10 | 7.11 | > 10 | 8.43 | > 10 | > 10 | 7.15 | > 10 | > 10 | > 10 | > 10 |  | > 10 | > 10 | > 10
15 | Cc1cccc(Nc2cn(CCOc3ccccc3)c(=O)n(CCOc3ccccc3)c2=O)c1 |  | > 100 | 96.9 | > 100 | > 100 | > 100 | > 100 | > 100 |  | > 100 |  | > 100 | > 100 |  | > 100 | > 100 | > 100 | > 100 | > 100 | 
16 | CC(CCc1ccc2c(c1)c(=N)c1ccc(N)cc1n2O)CC(C)(C)C (configuration not stated) |  | 2.79 | 3.04 | 4.03 | 17.9 |  | 3.07 | 3.18 |  |  |  | 3.19 | 3.22 | 3.29 | 3.63 | 2.79 |  |  | 4.64 | 
17 | CC(C)N1CSC(=S)N(Cc2ccccc2)C1 |  | > 10 | > 10 | > 10 | > 10 | 8.39 | > 10 |  |  | > 10 |  | > 10 | > 10 | > 10 |  | > 10 | > 10 | 7.44 | > 10 | > 10
18 | CCc1cc2c(cc1CCCC(=O)O)CC1(Cc3ccc(C(=O)O)cc3C1)C2 (configuration not stated) |  | > 100 | > 100 | > 100 | > 100 | > 100 | > 100 | > 100 | > 100 | > 100 | > 100 | > 100 | > 100 | > 100 | > 100 |  | > 100 | > 100 | > 100 | > 100
19 | CO[C@@H](c1ccccc1)[C@H](O)[C@](O)(c1ccccc1)P(=O)(OC)OC | > 100 | > 100 | > 100 | > 100 | > 100 | > 100 | > 100 | > 100 | > 100 | > 100 | > 100 | > 100 | > 100 | > 100 | > 100 | > 100 |  | > 100 | > 100 | > 100
20 | O=Cc1cc2c(o1)C(=O)c1ccccc1C2=O | 2.12 | 2.76 | 7.46 | 1.18 |  |  | 0.679 | 0.367 | > 30.2 |  |  | 2.11 | 0.779 | 8.52 | 1.5 | 3.29 | 0.581 | 0.352 | > 100 | 0.858
21 | Cn1c(=O)nc2n(-c3ccc(Cl)cc3Cl)c3ccccc3nc-2c1=O |  | 8.73 | 16.9 | 5.19 | 15.4 | 9.24 |  | 4.58 |  |  |  | 5.59 |  | 54.2 |  | 6.16 |  |  | > 100 | 
22 | COC(=O)[C@@]12OC[C@]34C([C@@H](O)C1O)[C@@]1(C)CC(=O)C(O)=C(C)C1C[C@H]3OC(=O)[C@H](OC(=O)CC(C)C(F)(F)F)[C@H]42 (some centres not stated) |  | 0.415 | 0.999 | 0.18 | 1.77 | 0.131 |  | 0.124 |  |  | 0.088 |  | 0.911 | 1.29 | 0.547 | 0.0629 |  |  | 0.0512 | 0.187
23 | O=C(CC(C(=O)c1ccsc1)c1ccccc1)c1cccs1 (configuration not stated) |  | > 100 | > 100 | > 100 | > 100 | > 100 |  | > 100 | > 100 | > 100 | > 100 | > 100 | > 100 | > 100 | > 100 | > 100 | 79.6 | > 100 | > 100 | > 100
24 | CCN1C(=O)C(=Cc2ccc(-c3ccccc3)cc2)C(=O)N(CC)C1=S | > 100 | > 100 | > 100 | > 100 | > 100 | > 100 | > 100 | > 100 | > 100 | > 100 |  | > 100 | > 100 | > 100 | > 100 | > 100 | > 100 |  | > 100 | > 100
25 | CCOC(CCCN1CCC2(CC1)C(=O)N(C)CN2c1ccccc1)(OCC)c1ccc(F)cc1 |  | 6.88 | 9.81 | 14.2 | 22.7 |  | 31 | 23.9 | 29.3 |  | 34.2 | 26.8 | 21.9 | 22.2 | 18.5 | 34.3 | 13.8 | 24.5 | 29.9 | 43.8
26 | O=C(Nc1ccc([N+](=O)[O-])cc1)C(=O)C(C(=O)c1ccccc1F)C1OC(=O)c2ccccc21 (configuration not stated) |  | 68 | > 100 | > 100 | > 100 | > 100 | 60.7 | > 100 |  |  | 41.6 |  | > 100 | > 100 | > 100 | > 100 |  |  | 68.9 | 96.4
27 | CCOC(=O)C(O)(NC(=O)Nc1ccc(F)cc1)C(F)(F)F (configuration not stated) | > 100 | > 100 | > 100 | > 100 | > 100 |  | > 100 | > 100 |  | > 100 |  |  | > 100 | > 100 | > 100 |  |  | > 100 | > 100 | > 100
28 | COC(=O)c1cc(-c2c[nH]cc2C(=O)OCc2ccccc2)cn1S(=O)(=O)c1ccc(C)cc1 | > 100 | > 100 | > 100 | > 100 | > 100 |  | > 100 | > 100 | > 100 |  | > 100 | > 100 | > 100 | > 100 | > 100 | > 100 | > 100 | > 100 |  | > 100

From PubChem BioAssay (NCI)
